Test results: patent publication US8084457B2, “Pharmaceutically active 4,6-disubstituted aminopyrimidine derivatives as modulators of protein kinases” (Lead Discovery Center GmbH, priority 2003, dated 2011)

Tests used:
GSK-3β = GSK-3β (Homo sapiens, UniProt P49841); assay: General kinase assay, selectivity panel: GSK-3β; assay type: biochemical; settings: 10 μM of compound, in comparison to DMSO (0% inhibition)
Experimental: (§1) The inhibitory effect of compounds according to the present invention on the activity of protein kinases, depicted in Table 1, can be measured according to the following protocol:
(§2) Pipettinq Sequence: • 1) Add 10 μl 4 fold concentrated Substrate+4 fold concentrated ATP in 3 fold concentrated Reaction Buffer to each well of Assay Plate • 2) Add 10 μl 4 fold concentrated inhibitor in 4% DMSO in H2O to each well except to C− and C+ wells • 3) Add 10 μl 4% DMSO in H2O to C− and C+ wells • 4) Add 10 μl 500 mM EDTA in H2O to − wells • 5) Add 10 μl 50 μCi/ml Adenosine 5′-[γ-^33P]triphosphate in H2O to each well • 6) Add 10 μl 4 fold concentrated kinase in Reaction Buffer to each well • 7) Incubate 1 hr at room temperature • 8) Add 10 μl 50 mM EDTA in H2O to each well except to C− wells • 9) Prepare MAPH plates by adding 200 μl 0.75% H3PO4 to each well • 10) Exhaust 0.75% H3PO4 using Millipore vacuum station • 11) Add 60 μl 0.75% H3PO4 to each well of MAPH Filter Plate • 12) Transfer 30 μl sample per well from Assay Plate to corresponding well of MAPH Filter Plate • 13) Incubate 30 min at room temperature • 14) Wash each well of MAPH Filter Plates 3× with 200 μl 0.75% H3PO4 using Millipore vacuum station. • 15) Add 20 μl Scintillation Liquid to each well of MAPH Filter Plate • 16) Seal MAPH Filter Plate • 17) Store MAPH Filter Plate 30 min in darkness • 18) Quantify radioactivity
(§3) The activity of these protein kinases is depicted as % inhibition in the presence of 10 μM of compound in comparison to DMSO (0% inhibition).

CDK1 = CDK1 (Homo sapiens, UniProt P06493); assay: General kinase assay, selectivity panel: CDK1; assay type: biochemical; settings: 10 μM of compound, in comparison to DMSO (0% inhibition)
CDK1, sequence (P06493 whole entry, species assumed): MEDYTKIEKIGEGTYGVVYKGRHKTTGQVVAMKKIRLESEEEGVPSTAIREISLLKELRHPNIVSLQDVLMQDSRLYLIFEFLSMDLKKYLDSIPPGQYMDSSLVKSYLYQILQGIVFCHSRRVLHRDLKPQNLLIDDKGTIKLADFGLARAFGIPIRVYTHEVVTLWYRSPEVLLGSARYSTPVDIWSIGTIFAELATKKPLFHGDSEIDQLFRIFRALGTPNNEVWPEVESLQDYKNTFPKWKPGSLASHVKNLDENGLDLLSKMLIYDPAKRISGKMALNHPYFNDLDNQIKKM
CDK1, sequence (P14635 whole entry partner, species assumed): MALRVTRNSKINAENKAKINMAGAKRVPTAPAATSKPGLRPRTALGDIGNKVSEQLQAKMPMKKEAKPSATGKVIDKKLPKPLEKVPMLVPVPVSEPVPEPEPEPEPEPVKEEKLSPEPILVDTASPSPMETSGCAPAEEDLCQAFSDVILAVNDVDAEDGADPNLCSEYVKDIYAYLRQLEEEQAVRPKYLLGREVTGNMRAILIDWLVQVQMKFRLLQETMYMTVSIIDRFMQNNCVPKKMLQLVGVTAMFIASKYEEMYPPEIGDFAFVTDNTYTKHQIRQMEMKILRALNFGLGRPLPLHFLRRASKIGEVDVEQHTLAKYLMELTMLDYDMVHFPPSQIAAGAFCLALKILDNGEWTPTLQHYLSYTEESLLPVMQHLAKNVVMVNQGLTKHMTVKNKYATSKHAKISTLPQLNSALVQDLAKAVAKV
Experimental: as §1, §2, §3

HCMV strain AD169 = assay: HCMV replication assay in HFF cells (EGFP); assay type: cell-based; settings: strain AD 169 in HFF cells
Experimental: Human foreskin fibroblasts (HFF) cell culture were grown in DMEM containing 10% FCS. For HCMV-replication assays, HFF cells were infected with HCMV strain AD169 producing EGFP (HCMV AD169-GFP; 27). 1 h post infection, medium was changed with medium containing the indicated compound concentration (0.3 μM, 1 μM and 3 μM, respectively) After incubation of 7 days cells were lysed (in 25 mM Tris, pH 7.5, 2 mM DTT, 1% Triton X-100 and 10% glycerol) and analysed for EGFP content in a Wallac Victor fluorescence detector.

EGFR = EGFR (Homo sapiens, UniProt P00533); assay: General kinase assay, selectivity panel: EGFR; assay type: biochemical; settings: 10 μM of compound, in comparison to DMSO (0% inhibition)
EGFR, sequence (P00533 25-1210, species assumed): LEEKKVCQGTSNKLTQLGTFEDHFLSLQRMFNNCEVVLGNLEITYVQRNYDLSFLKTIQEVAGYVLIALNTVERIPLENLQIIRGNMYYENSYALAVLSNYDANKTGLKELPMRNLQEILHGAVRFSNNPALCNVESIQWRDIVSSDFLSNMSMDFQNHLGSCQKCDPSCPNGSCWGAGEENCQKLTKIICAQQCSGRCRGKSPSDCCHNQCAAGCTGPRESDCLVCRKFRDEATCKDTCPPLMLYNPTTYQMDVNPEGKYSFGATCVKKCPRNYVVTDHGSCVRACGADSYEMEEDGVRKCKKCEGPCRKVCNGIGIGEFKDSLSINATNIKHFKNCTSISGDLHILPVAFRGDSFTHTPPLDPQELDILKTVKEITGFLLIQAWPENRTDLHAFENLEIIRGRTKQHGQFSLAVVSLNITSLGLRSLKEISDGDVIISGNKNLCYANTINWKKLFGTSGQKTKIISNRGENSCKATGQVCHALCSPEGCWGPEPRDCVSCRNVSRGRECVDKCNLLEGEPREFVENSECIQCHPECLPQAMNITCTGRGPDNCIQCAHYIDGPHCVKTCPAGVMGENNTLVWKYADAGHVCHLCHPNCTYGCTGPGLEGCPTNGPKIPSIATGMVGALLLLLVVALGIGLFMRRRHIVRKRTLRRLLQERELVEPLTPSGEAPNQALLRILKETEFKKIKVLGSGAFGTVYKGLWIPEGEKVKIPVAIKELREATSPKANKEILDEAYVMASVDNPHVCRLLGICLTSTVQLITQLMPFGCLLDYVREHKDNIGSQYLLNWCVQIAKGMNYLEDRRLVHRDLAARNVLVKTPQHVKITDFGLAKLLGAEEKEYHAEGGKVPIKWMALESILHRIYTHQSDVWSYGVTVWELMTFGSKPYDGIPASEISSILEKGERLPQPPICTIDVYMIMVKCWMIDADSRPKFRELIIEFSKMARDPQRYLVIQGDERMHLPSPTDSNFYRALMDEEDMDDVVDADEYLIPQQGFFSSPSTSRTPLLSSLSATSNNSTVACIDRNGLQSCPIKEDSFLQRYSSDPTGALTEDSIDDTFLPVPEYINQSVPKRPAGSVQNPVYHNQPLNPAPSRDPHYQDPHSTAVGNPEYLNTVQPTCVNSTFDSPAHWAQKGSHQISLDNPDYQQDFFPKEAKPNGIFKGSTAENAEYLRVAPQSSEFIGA
Experimental: as §1, §2, §3

p56 Lck = p56 Lck (Homo sapiens, UniProt P06239); assay: General kinase assay, selectivity panel: p56 Lck; assay type: biochemical; settings: 10 μM of compound, in comparison to DMSO (0% inhibition)
Experimental: as §1, §2, §3

[1] = tested on: NFκB-dependent transcriptional activity; assay: NFκB-dependent transcriptional activity (NIH 3T3 75E 11/300D8 cell line); assay type: cell-based
Text: NFκB-dependent Transcriptional Activity:
The used NIH 3T3 75E 11/300D8 cell line is described elsewhere (J. Eickhoff et al., Journal of Biological Chemistry, 2004, 279(10), 9642-9652).
It is known, that CDK9 regulates the NFκB-dependent transitional activity. With Compound 4, Compound 7 and Compound 30 studies were done, to evaluate their effect on NFκB-dependent transcriptional activity.

c-Kit = c-Kit (Homo sapiens, UniProt P10721); assay: General kinase assay, selectivity panel: c-Kit; assay type: biochemical; settings: 10 μM of compound, in comparison to DMSO (0% inhibition)
c-Kit, sequence (P10721 26-976): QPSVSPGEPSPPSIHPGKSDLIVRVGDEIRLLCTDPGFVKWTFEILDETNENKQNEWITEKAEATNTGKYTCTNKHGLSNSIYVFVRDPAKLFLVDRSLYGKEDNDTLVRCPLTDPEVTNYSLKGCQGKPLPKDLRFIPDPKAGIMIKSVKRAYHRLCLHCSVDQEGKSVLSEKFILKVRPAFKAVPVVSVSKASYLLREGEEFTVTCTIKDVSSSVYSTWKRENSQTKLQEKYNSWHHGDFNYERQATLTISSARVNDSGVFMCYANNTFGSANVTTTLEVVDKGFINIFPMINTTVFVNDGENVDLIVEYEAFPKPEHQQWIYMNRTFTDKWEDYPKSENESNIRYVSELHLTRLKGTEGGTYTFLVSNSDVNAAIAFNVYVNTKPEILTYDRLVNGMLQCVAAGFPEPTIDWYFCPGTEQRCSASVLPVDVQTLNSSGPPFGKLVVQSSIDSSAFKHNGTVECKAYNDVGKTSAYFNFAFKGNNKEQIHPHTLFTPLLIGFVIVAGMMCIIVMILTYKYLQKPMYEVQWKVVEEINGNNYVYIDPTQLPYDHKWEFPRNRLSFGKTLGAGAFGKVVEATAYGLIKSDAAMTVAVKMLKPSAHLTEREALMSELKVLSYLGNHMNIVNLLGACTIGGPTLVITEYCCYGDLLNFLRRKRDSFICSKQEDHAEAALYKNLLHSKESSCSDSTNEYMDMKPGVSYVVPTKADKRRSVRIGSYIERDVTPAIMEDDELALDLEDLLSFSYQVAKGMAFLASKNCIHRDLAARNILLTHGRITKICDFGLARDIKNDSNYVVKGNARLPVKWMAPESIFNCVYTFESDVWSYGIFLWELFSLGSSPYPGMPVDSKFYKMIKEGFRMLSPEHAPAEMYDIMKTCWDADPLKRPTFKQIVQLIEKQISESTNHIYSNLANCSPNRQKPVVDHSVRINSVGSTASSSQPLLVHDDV
Experimental: as §1, §2, §3

PDGFR = assay: General kinase assay, selectivity panel: PDGFR; assay type: biochemical; settings: 10 μM of compound, in comparison to DMSO (0% inhibition)
Experimental: as §1, §2, §3

RSK1 = RSK1 (Homo sapiens, UniProt Q15418); assay: General kinase assay, selectivity panel: RSK1; assay type: biochemical; settings: 10 μM of compound, in comparison to DMSO (0% inhibition)
Experimental: as §1, §2, §3

Abl = Abl (Homo sapiens, UniProt P00519); assay: General kinase assay, selectivity panel: Abl; assay type: biochemical; settings: 10 μM of compound, in comparison to DMSO (0% inhibition)
Abl, sequence (P00519 whole entry, species assumed): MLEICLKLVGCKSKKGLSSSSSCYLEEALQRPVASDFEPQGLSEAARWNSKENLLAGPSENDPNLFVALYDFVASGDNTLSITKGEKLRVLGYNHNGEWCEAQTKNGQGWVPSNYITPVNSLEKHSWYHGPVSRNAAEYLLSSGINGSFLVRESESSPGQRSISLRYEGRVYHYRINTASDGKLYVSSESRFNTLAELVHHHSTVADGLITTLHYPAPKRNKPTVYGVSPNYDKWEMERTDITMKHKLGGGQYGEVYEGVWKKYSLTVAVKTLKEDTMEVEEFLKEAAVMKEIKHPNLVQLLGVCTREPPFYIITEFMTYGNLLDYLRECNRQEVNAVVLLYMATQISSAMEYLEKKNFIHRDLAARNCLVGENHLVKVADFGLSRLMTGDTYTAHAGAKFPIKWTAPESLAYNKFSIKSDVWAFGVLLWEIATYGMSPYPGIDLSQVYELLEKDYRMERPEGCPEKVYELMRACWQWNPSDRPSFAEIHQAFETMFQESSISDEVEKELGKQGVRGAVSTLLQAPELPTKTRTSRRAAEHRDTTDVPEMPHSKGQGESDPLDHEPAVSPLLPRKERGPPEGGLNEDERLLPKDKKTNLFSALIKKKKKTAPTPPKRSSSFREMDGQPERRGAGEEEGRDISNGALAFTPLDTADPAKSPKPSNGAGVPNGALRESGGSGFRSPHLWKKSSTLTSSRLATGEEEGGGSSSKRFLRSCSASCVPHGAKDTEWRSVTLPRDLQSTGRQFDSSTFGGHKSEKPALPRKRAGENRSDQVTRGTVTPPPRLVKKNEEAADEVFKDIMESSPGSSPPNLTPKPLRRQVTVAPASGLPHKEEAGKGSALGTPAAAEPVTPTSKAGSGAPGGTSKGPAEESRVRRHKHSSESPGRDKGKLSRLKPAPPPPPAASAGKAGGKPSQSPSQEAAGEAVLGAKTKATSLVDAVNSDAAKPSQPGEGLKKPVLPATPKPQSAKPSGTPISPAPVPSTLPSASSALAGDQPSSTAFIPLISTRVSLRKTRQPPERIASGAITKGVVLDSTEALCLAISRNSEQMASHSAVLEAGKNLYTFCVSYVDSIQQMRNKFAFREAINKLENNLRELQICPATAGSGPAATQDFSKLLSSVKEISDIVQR
Experimental: as §1, §2, §3

CDK5/p35 = molecular target: T1, CDK5/p35 (Homo sapiens, UniProt Q00535); assay: Kinase assay determining CDK5/p35 activity (selectivity panel); assay type: biochemical; settings: 10 μM of compound, in comparison to DMSO (0% inhibition)
T1 construct: purchased Upsate (Upstate)
T1 sequence (Q00535 whole entry): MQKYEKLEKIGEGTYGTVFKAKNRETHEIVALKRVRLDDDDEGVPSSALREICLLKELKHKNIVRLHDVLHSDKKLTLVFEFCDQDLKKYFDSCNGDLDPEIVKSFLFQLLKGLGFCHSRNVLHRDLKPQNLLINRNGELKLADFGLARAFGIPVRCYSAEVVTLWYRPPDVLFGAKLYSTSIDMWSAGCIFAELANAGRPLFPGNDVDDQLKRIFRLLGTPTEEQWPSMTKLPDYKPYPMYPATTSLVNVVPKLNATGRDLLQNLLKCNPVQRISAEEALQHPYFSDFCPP
T1 sequence (Q15078 whole entry partner): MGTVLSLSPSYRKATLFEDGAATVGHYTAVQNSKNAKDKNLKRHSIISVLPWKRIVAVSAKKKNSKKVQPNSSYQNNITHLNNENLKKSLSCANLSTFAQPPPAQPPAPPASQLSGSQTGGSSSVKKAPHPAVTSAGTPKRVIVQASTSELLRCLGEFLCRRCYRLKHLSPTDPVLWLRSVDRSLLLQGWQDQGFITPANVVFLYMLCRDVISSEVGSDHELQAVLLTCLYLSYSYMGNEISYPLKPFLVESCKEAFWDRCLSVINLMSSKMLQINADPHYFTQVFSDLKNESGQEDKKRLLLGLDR
Experimental: Kinase Assays Determining CDK2/CyclinA and CDK5/p35 Activity:
Kinase assays were performed as described by the manufacturers recommendations (Proqinase for CDK2/CyclinA and Upsate for CDK5/p35).
as §3

cMet = cMet (Homo sapiens, UniProt P08581); assay: General kinase assay, selectivity panel: cMet; assay type: biochemical; settings: 10 μM of compound, in comparison to DMSO (0% inhibition)
Experimental: as §1, §2, §3

c-Src = c-Src (Homo sapiens, UniProt P12931); assay: General kinase assay, selectivity panel: c-Src; assay type: biochemical; settings: 10 μM of compound, in comparison to DMSO (0% inhibition)
Experimental: as §1, §2, §3

HBV = HBV replication assay in HepG2-2.2.15 cells; assay type: cell-based
Experimental: To test anti—HBV-activity of compounds the HBV-producing cell line HepG2-2.2.15 (M. A. Sells, PNAS 1987, 84, 1005-1009) was used. 1.0×10^4 cells were seeded in 96-well microtiter plates in DMEM medium supplemented with 10% FCS. After incubation at 37° C. in 5% CO2 atmosphere for 24 hours the medium was replaced with fresh medium containing the appropriately diluted compound. 3 days later medium was replaced by freshly prepared inhibitor-containing medium and the cells were incubated for further 3 days. Subsequently 200 μl lysis buffer (50 mM Tris-Cl 7.5; 1 mM EDTA 8.0; 0.5% NP40) per well was added. To remove cell debris and […], lysate was centrifuged (15000 rpm, 10 min, 4° C.). Cellular and viral RNA was removed by addition of 2 μl of RNase. 100 μl of the samples were spotted onto an uncharged nylon membrane pre-wetted with PBS (phosphate-buffered saline) using a 96 well-blotting chamber (MINIfold Dot-Blot, Schleicher&Schüll). After further washing with 200 μl PBS per well the membrane was treated twice with 0.5 M NaOH, 1.5 M NaCl (2 min) and 4 times with 0.5 M Tris 7.5, 3 M NaCl (1 min). The nucleic acids were fixed by UV-treatment and used for hybridisabon with a radioactive HBV-fragment prepared from the overgenome-length HBV-plasmid pT-HBV1.3 (L. G. Guidotti et al., Journal of Virology 1995., 69(10), 6158-6169).
The fixed membrane was pre-hybridized in a standard hybridisation buffer (50% formamide, 5×SSPE, 10×Denhards, 1% SDS, 100 μg/ml salmon sperm DNA) for at least 3 hours at 42° C. and hybridised overnight against the labelled HBV-fragment. The preparation of the HBV-fragment with the “Random primers DNA labelling system” (Invitrogen) was done according to the manufacturer's instructions. Hybridized filter were washed at room temperature with 2×SSC, at 62° C. with 2×SSC, 0.5% SDS and at 62° C. with 0.5×SSC, 0.5% SDS. Each washing step was carried out twice. The intensity of the HBV-DNA was quantified using a phosphoimager (Fuji). […] Absorbance was monitored at 570 nm and 600 nm wavelength.

GSK-3β, sequence (P49841 whole entry, species assumed): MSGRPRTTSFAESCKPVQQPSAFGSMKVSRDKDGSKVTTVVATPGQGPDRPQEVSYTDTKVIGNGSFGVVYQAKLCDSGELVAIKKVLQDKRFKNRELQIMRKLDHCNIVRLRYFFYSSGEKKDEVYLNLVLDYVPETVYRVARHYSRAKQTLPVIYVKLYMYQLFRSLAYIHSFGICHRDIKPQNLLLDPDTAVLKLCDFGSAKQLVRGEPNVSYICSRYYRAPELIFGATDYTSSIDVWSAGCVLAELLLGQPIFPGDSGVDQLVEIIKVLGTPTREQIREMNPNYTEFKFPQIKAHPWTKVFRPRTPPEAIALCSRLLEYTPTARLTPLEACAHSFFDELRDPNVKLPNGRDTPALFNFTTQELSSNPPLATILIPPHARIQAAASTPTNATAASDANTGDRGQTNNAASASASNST

Compound | GSK-3β (% inhibition) (GSK-3β) | CDK1 (% inhibition) (CDK1) | EGFR (% inhibition) (EGFR) | p56 Lck (% inhibition) (p56 Lck) | c-Kit (% inhibition) (c-Kit) | PDGFR (% inhibition) (PDGFR) | RSK1 (% inhibition) (RSK1) | Abl (% inhibition) (Abl) | CDK5 (% inhibition) (CDK5/p35) | cMet (% inhibition) (cMet) | c-Src (% inhibition) (c-Src) | HCMV replication (in words) (HCMV strain AD169) | inhibition of NFκB (in words, compared with Compound 30) [1] | EC50 ([1]; titration) [nM] | HBV replication (in words) (HBV)
Nc1ccc(C(=O)Nc2ccc(Nc3cc(-c4ccccc4OCc4ccccc4)ncn3)cc2)cc1 [Compound 4] | a (inhibition greater than 80%: a) | a (inhibition greater than 80%: a) | c (inhibition between 50 and 30%: c) | a (inhibition greater than 80%: a) |  |  |  |  |  |  |  | showed inhibition | less effectively | ~2000 | 
COc1ccc(-c2cc(Nc3ccc(NC(=O)c4ccc(N)cc4)cc3)ncn2)cc1 [Compound 6] | b (inhibition between 80 and 50%: b) | a (inhibition greater than 80%: a) |  | c (inhibition between 50 and 30%: c) | b (inhibition between 80 and 50%: b) | c (inhibition between 50 and 30%: c) |  |  |  |  |  | showed inhibition |  |  | 
COc1ccccc1-c1cc(Nc2ccc(NS(C)(=O)=O)cc2)ncn1 [Compound 33] | b (inhibition between 80 and 50%: b) | a (inhibition greater than 80%: a) | b (inhibition between 80 and 50%: b) | b (inhibition between 80 and 50%: b) | b (inhibition between 80 and 50%: b) | b (inhibition between 80 and 50%: b) | c (inhibition between 50 and 30%: c) |  |  |  |  |  |  |  | 
COc1ccccc1-c1cc(Nc2ccc(NC(=O)c3cn(C)cn3)cc2)ncn1 [Compound 70] | b (inhibition between 80 and 50%: b) | a (inhibition greater than 80%: a) | b (inhibition between 80 and 50%: b) | b (inhibition between 80 and 50%: b) | b (inhibition between 80 and 50%: b) | b (inhibition between 80 and 50%: b) | b (inhibition between 80 and 50%: b) | c (inhibition between 50 and 30%: c) |  |  |  |  |  |  | 
COc1ccccc1-c1cc(Nc2ccc(NC(=O)[C@@H](N)c3ccccc3)cc2)ncn1 [Compound 81] | b (inhibition between 80 and 50%: b) | a (inhibition greater than 80%: a) | b (inhibition between 80 and 50%: b) |  |  | b (inhibition between 80 and 50%: b) |  | b (inhibition between 80 and 50%: b) | a (inhibition greater than 80%: a) |  |  |  |  |  | 
COc1ccccc1-c1cc(Nc2ccc(NC(=O)C3CCCN(C)C3)cc2)ncn1 (centres unmarked) [Compound 87] |  | a (inhibition greater than 80%: a) | a (inhibition greater than 80%: a) | b (inhibition between 80 and 50%: b) | b (inhibition between 80 and 50%: b) | b (inhibition between 80 and 50%: b) | b (inhibition between 80 and 50%: b) | b (inhibition between 80 and 50%: b) |  | c (inhibition between 50 and 30%: c) |  |  |  |  | 
CN1CC[C@H](c2c(O)cc(O)c3c(=O)cc(-c4ccccc4Cl)oc23)[C@H](O)C1 [flavopiridol, reference compound] |  |  |  |  |  |  |  |  |  |  |  |  |  |  | inhibits replication

Further lines, with some results ahead:

GSK-3β (% inhibition) (GSK-3β) | CDK1 (% inhibition) (CDK1) | EGFR (% inhibition) (EGFR) | p56 Lck (% inhibition) (p56 Lck) | c-Kit (% inhibition) (c-Kit) | PDGFR (% inhibition) (PDGFR) | RSK1 (% inhibition) (RSK1) | Abl (% inhibition) (Abl) | CDK5 (% inhibition) (CDK5/p35) | cMet (% inhibition) (cMet) | c-Src (% inhibition) (c-Src) | Compound | HCMV replication (in words) (HCMV strain AD169) | inhibition of NFκB (in words, compared with Compound 30) [1] | EC50 ([1]; titration) [nM] | HBV replication (in words) (HBV)
c (inhibition between 50 and 30%: c) | b (inhibition between 80 and 50%: b) | a (inhibition greater than 80%: a) |  |  | c (inhibition between 50 and 30%: c) |  | c (inhibition between 50 and 30%: c) | b (inhibition between 80 and 50%: b) |  |  | CN[C@H](C(=O)Nc1ccc(Nc2cc(-c3ccccc3OC)ncn2)cc1)c1ccccc1 [Compound 82] |  |  |  | 
a (inhibition greater than 80%: a) | a (inhibition greater than 80%: a) | b (inhibition between 80 and 50%: b) | b (inhibition between 80 and 50%: b) |  | c (inhibition between 50 and 30%: c) |  |  |  |  | b (inhibition between 80 and 50%: b) | NC(=O)c1ccc(Nc2cc(-c3ccccc3OCc3ccccc3)ncn2)cc1 [Compound 95] |  |  |  | 
a (inhibition greater than 80%: a) | a (inhibition greater than 80%: a) | b (inhibition between 80 and 50%: b) |  |  | c (inhibition between 50 and 30%: c) |  |  | a (inhibition greater than 80%: a) |  |  | Cc1ccc(Nc2cc(-c3cccc(N)c3)ncn2)cc1NS(=O)(=O)c1ccccc1 [Compound 109] |  |  |  | 
 | b (inhibition between 80 and 50%: b) | a (inhibition greater than 80%: a) |  |  | b (inhibition between 80 and 50%: b) |  | c (inhibition between 50 and 30%: c) | b (inhibition between 80 and 50%: b) |  |  | CNC(C)(C)C(=O)Nc1ccc(Nc2cc(-c3ccccc3OC)ncn2)cc1 [Compound 118] |  |  |  | 
